The results in this text go back to patent publication US7635779B2, “Oxy substituted flavones as antihyperglycemic and antidyslipidemic agents” (Council of Scientific & Industrial Research, priority 2004, dated 2009).

One data set has as its system sucrose loaded rat. The data set can be described thus: Sucrose loaded rat model (SLM), antihyperglycemic activity. The data set is classed as in vivo. The conditions noted are these: for inhibition in vivo at 100 mg/kg: Rattus norvegicus, po, 2 h, read-out: % Fall in blood glucose levels, SLM; for % Fall in blood glucose levels, SLM: 100 mg/kg oral, AUC vs control. On the procedure:
Male albino rats of Charles Foster/Wistar strain of average body weight 160±20 g were selected for this study. The blood glucose level of each animal was checked by glucometer using glucostrips (Boehringer Mannheim) after 16 h starvation. Animals showing blood glucose levels between 3.33 to 4.44 mM (60 to 80 mg/dl) were divided into groups of five to six animals in each. Animals of experimental group were administered suspension of the desired synthetic compound orally (made in 1.0% gum acacia) at a dose of 100-mg/kg-body weight. Animals of control group were given an equal amount of 1.0% gum acacia. A sucrose load (10.0 g/kg) was given to each animal orally exactly after 30 min post administration of the test sample/vehicle. Blood glucose profile of each rat was again determined at 30, 60, 90 and 120 min post administration of sucrose by glucometer. Food but not water was withheld from the cages during the course of experimentation. Quantitative glucose tolerance of each animal was calculated by Area Under Curve (AUC) method (Prism Software). Comparing the AUC of experimental and control groups determined the percentage antihyperglycemic activity. Statistical comparison was made by Dunnett's test.

Data set [1] relates to streptozotocin-induced diabetic rats. The data set can be described thus: Sucrose-challenged streptozotocin-induced diabetic rats (STZ-S). The data set is classed as in vivo, rat. Particulars: 100 mg/kg oral. On the procedure: Male albino rats of Sprague Dawley strain of body weight 160+20 g were selected for this study. Streptozotocin (Sigma, USA) was dissolved in 100 mM citrate buffer pH 4.5 and calculated amount of the fresh solution was injected to overnight fasted rats (45 mg/kg) intraperitoneally. Blood glucose level was checked 48 h later by glucostrips and animals showing blood glucose values between 144 to 270 mg/dl (8 to 15 mM) were included in the experiment and termed diabetic. The diabetic animals were divided into groups consisting of five to six animals in each group. Animals of experimental groups were administered suspension of the desired test samples orally (made in 1.0% gum acacia) at a dose of 100-mg/kg-body weight. Animals of control group were given an equal amount of 1.0% gum acacia. A sucrose load of 2.5-g/kg body weight was given after 30 minutes of compound administration. After 30 minutes of post sucrose load blood glucose level was again checked by glucostrips at 30, 60, 90, 120, 180, 240, 300 min and at 24 h, respectively. Animals not found diabetic after 24 hours post treatment of the test sample were not considered and omitted from the calculations and termed as non-responders. […] Food but not water was withheld from the cages during the experimentation. Comparing the AUC of experimental and control groups determined the percent antihyperglycemic activity. Statistical comparison between groups was made by Student's ‘t’ test.
As depicted in the FIGURE, a dose response curve of 34 was obtained by administering different doses of test compound to streptozotocin-induced diabetic rats (Table 6). […]

The subject of data set [2] is triton WR-1339 induced hyperlipidemic rats. In words: Triton model, antidyslipidemic activity. The data set is classed as in vivo, rat. The conditions noted are these: Rattus norvegicus, 100 mg/kg oral, plasma after 18 h. On the procedure: Male Charles foster rats weighing 200-225 g were divided into control, hyperlipidemic and hyperlipidemic plus drug treated groups containing six animals in each group. Hyperlipidemia was induced by administration of triton WR-1339 (200 mg/kg i.p.). All animals were maintained on a special pellet diet and water ad libitum. Compounds and standard drug were macerated with 0.2% aqueous gum acacia suspension. The suspension was fed orally at the dose of 100 mg/kg simultaneously with triton in drug treated group. The animals of control group received the same amount of gum acacia by similar route of administration. At the end of the experiment, after 18 h, blood was withdrawn from retro orbital plexus and plasma was used for the assay of total cholesterol, phospholipid and triglycerides.
Cholesterol was estimated using the kit provided by Roche Diagnostics. Cholesterol esters are enzymatically hydrolyzed by cholesterol esterase (CE) to cholesterol and free fatty acids. Free cholesterol, including that originally present, is then oxidized by cholesterol oxidase (CO) to cholest-4-en-3-one and hydrogen peroxide. The hydrogen peroxide combines with hydroxy benzoic acid (HBA) and 4-aminoantipyrine (4AAA) in the presence of peroxidase (POD) to form a chromophore (quinoneimine dye), which may be quantitated at 500-505 nm. The intensity of red colour formed is directly proportional to the concentration of total cholesterol in the specimen and measured spectrophotometrically (Searcy, C. L. Diagnostic Biochemistry, 1969, McGraw Hill, New York; Ellefson, R. D.; Caraway, W. T. Fundamentals of clinical chemistry, 1976, Ed Tietz N W, 506-515.)
Triglycerides were estimated using the kit provided by Roche Diagnostics. Lipoprotein lipase hydrolyses triglycerides to yield glycerol and fatty acids. Glycerol kinase converts glycerol to glycerol-3-phosphate, which is oxidized by glycerol phosphate oxidase to dihydroxy acetone phosphate and hydrogen peroxide. In the presence of peroxidase, hydrogen peroxide oxidatively couples with 4-aminoantipyrine and 4-chloro phenol to produce red quinonimine dye. The intensity of red colour formed is directly proportional to the concentration of triglycerides in the specimen and is measured by photometrically (Wahlefeld, A. W.; Bergmeyer, H. U. Ed. Methods of enzymatic analysis, 2nd English edition, New York, N.Y., Academic press inc, 1831-1840.).
Serum (0.2 mL) and perchloric acid (1.0 mL) was digested at 180° C. for 1-1.5 h till the solution became colorless. The liberated inorganic phosphate (Pi) was measured by the method of Fiske and Subbarow (Fiske, C. H.; Subbarow, V. J. Biol. Chem. 1925, 66, 375.). 1 mL of 2.5% ammonium molybdate (prepared in 5 N sulphuric acid) and 0.5 mL reducing agent (4-amino naphthol sulphonic acid, 0.2%), sodium metabisulphite (2.4% w/v in distilled water) was added to the above tubes and mixed well. The reaction mixture was […] with 2.5 mL of triple distilled water and kept at 60° C. in water bath for 20 min. For standard, an appropriate amount of potassium dihydrogen phosphate dissolved in triple distilled water containing 2-10 μg phosphorous (Pi) was run simultaneously with the experiment tubes. The optical density of the blue colour was recorded at 620 nm against reagent blank. The values of Pi were converted into phospholipid by multiplying with 25 (a constant calibrated from Pi value of lecithin).

Where [3] appears, read: phospholipid, read-out: % Fall in lipid levels (Triton model) PL.
The mark [4] stands for this setting: total cholesterol, read-out: % Fall in lipid levels (Triton model) TC.
[5] abbreviates: triglycerides, read-out: % Fall in lipid levels (Triton model) TG.

Like-named read-outs stand apart in the source and are kept apart here.

By melting point is commonly meant the temperature, or range, at which the solid turns liquid. Molecule `O=c1cc(-c2cc(OCc3ccccc3)cc(OCc3ccccc3)c2)oc2cc(OCC(O)CN3CCN(c4ccccc4)CC3)ccc12` (centres unmarked) [Compound 36, 3′,5′-Dibenzyloxy-7-[2-hydroxy-3-(4-phenylpiperazin-1-yl)-propoxy]-flavone] showed a melting point of 168 to 170 °C. Also, the inhibition in vivo at 100 mg/kg in the data set on sucrose loaded rat stood at 34.6%. In data set [1], the “% Fall in blood glucose levels, STZ-S 5 h” value (“% Fall … STZ-S 5 h” for short) was “NIL” and the “% Fall in blood glucose levels, STZ-S 24 h” value (“% Fall … STZ-S 24 h” for short) amounted to 2.46%. Moreover, the inhibition in vivo at 100 mg/kg in data set [2] (setting [3]) was 21%. Also, the inhibition in vivo at 100 mg/kg in data set [2] (setting [4]) amounted to 24%. In data set [2] (setting [5]), the inhibition in vivo at 100 mg/kg is 17%.
The molecule `CC(C)(C)NCC(O)COc1ccc2oc(-c3ccc(OCc4ccccc4)c(OCc4ccccc4)c3)cc(=O)c2c1` (centres unmarked) [Compound 39, 6-(3-tert-Butylamino-2-hydroxy-propoxy)-3′,4′-dibenzyloxy-flavone] showed a melting point of 156 to 157 °C. In the data set with sucrose loaded rat, the inhibition in vivo at 100 mg/kg turned out to be 21.8%. For the same molecule, in data set [1], the “% Fall … STZ-S 5 h” value is 14.9% and the “% Fall … STZ-S 24 h” value came to 0.36%. Also, in data set [2] (setting [3]), the inhibition in vivo at 100 mg/kg turned out to be 12%. The inhibition in vivo at 100 mg/kg in data set [2] (setting [4]) turned out to be 21%. The inhibition in vivo at 100 mg/kg in data set [2] (setting [5]) amounted to 17%.
`COc1cc(-c2cc(=O)c3ccc(OCC(O)CNC(C)C)cc3o2)cc(OC)c1OC` (centres unmarked) [Compound 41, 7-(2-Hydroxy-3-iso-propylamino-propoxy)-3′,4′,5′-trimethoxy-flavone] returned a melting point of 106 to 107 °C. Further, the inhibition in vivo at 100 mg/kg with sucrose loaded rat was 20.7%. Also, in data set [1], the “% Fall … STZ-S 5 h” value was determined as 17.4% and the “% Fall … STZ-S 24 h” value is recorded as 19.1%. In data set [2] (setting [3]), the inhibition in vivo at 100 mg/kg came to 16%. Also, the inhibition in vivo at 100 mg/kg in data set [2] (setting [4]) is 18%. Besides, in data set [2] (setting [5]), the inhibition in vivo at 100 mg/kg is 19%.
With `COc1cc(-c2cc(=O)c3ccc(OCC(O)CN4CCN(c5ccccc5)CC4)cc3o2)cc(OC)c1OC` (centres unmarked) [Compound 42, 7-[2-Hydroxy-3-(4-phenylpiperazin-1-yl)-propoxy]-3′,4′,5′-trimethoxy-flavone], the melting point fell in the range of 170 to 171 °C. For the same molecule, the inhibition in vivo at 100 mg/kg in the data set on sucrose loaded rat was determined as 5.64%. For the same molecule, the inhibition in vivo at 100 mg/kg in data set [2] (setting [3]) came to 8%. Further, the inhibition in vivo at 100 mg/kg in data set [2] (setting [4]) amounted to 19%. Besides, the inhibition in vivo at 100 mg/kg in data set [2] (setting [5]) amounted to 23%.
For the molecule `COc1cc(OC)cc(-c2cc(=O)c3ccc(OCC(O)CNC(C)(C)C)cc3o2)c1` (centres unmarked) [Compound 43, 7-[3-tert-Butylamino-2-hydroxy-propoxy]-3′,5′-dimethoxy flavone], the melting point fell in the range of 145 to 146 °C. In addition, the “% Fall in blood glucose levels, SLM” value in the data set on sucrose loaded rat is “NIL”. In addition, in data set [2] (setting [3]), the inhibition in vivo at 100 mg/kg was found to be 19%. Besides, in data set [2] (setting [4]), the inhibition in vivo at 100 mg/kg turned out to be 21%. Also, in data set [2] (setting [5]), the inhibition in vivo at 100 mg/kg stood at 17%.
Molecule `COc1cc(OC)cc(-c2cc(=O)c3ccc(OCC(O)CNC(C)C)cc3o2)c1` (centres unmarked) [Compound 44, 3′,5′-Dimethoxy-7-[2-hydroxy-3-iso-propylamino-propoxy]-flavone] registered a melting point of 155 to 156 °C. In addition, the inhibition in vivo at 100 mg/kg in the data set with sucrose loaded rat is 1.36%. Also, in data set [2] (setting [3]), the inhibition in vivo at 100 mg/kg was found to be 21%. Also, the inhibition in vivo at 100 mg/kg in data set [2] (setting [4]) stood at 17%. Also, the inhibition in vivo at 100 mg/kg in data set [2] (setting [5]) is 24%.
On to `COc1cc(OC)cc(-c2cc(=O)c3ccc(OCC(O)CN4CCN(c5ccccc5)CC4)cc3o2)c1` (centres unmarked) [Compound 45, 3′,5′-Dimethoxy-7-[2-hydroxy-3-(4-phenylpiperazin-1-yl)-propoxy]-flavone], for which the melting point is 195 to 196 °C. For the same molecule, the “% Fall in blood glucose levels, SLM” value with sucrose loaded rat is listed as “NIL”. For the same molecule, the inhibition in vivo at 100 mg/kg in data set [2] (setting [3]) stood at 20%. Also, in data set [2] (setting [4]), the inhibition in vivo at 100 mg/kg was found to be 30%. Moreover, the inhibition in vivo at 100 mg/kg in data set [2] (setting [5]) was found to be 31%.
Take `COc1ccc(-c2cc(=O)c3ccc(OCC(O)CN4CCN(c5ccccc5)CC4)cc3o2)cc1OC` (centres unmarked) [Compound 47, 3′,4′-Dimethoxy-7-[2-hydroxy-3-(4-phenylpiperazin-1-yl)-propoxy]-flavone]: the melting point fell in the range of 191 to 193 °C. Further, the inhibition in vivo at 100 mg/kg with sucrose loaded rat amounted to 5.45%. Besides, in data set [2] (setting [3]), the inhibition in vivo at 100 mg/kg was 22%. Further, in data set [2] (setting [4]), the inhibition in vivo at 100 mg/kg amounted to 23%. In addition, the inhibition in vivo at 100 mg/kg in data set [2] (setting [5]) was 19%.
Consider `CC(C)(C)NCC(O)COc1ccc2c(=O)cc(-c3cc(O)cc(O)c3)oc2c1` (centres unmarked) [Compound 48, 7-(3-tert-Butylamino-2-hydroxy-propoxy)-3′,5′-dihydroxy-flavone], for which the melting point was 153 °C (dec.). For the same molecule, the inhibition in vivo at 100 mg/kg with sucrose loaded rat was 19.1%. Moreover, in data set [1], the “% Fall … STZ-S 5 h” value is listed as “NIL” and the “% Fall … STZ-S 24 h” value is reported as “NIL”. For the same molecule, the inhibition in vivo at 100 mg/kg in data set [2] (setting [3]) came to 4%. In addition, the inhibition in vivo at 100 mg/kg in data set [2] (setting [4]) came to 17%. The inhibition in vivo at 100 mg/kg in data set [2] (setting [5]) is 16%.
